Experiments:
Assay in all cases: relative viability (nuclei count vs DMSO), 5 days (fraction); higher = more cells survive
Staurosporine + OSI-027 = compound: CN[C@@H]1C[C@H]2O[C@@](C)([C@@H]1OC)n1c3ccccc3c3c4c(c5c6ccccc6n2c5c31)C(=O)NC4 [Staurosporine] + COc1cccc2cc(-c3nc([C@H]4CC[C@H](C(=O)O)CC4)n4ncnc(N)c34)[nH]c12 [OSI-027] (partner 0.5 µM)
Summary of the method: (§1)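 Lung cancer cell lines, seeded in 1536-well plates, were treated the following day by pin tool with a single drug or with five library-drug doses (not always all listed) in √10 steps on top of a fixed anchor-drug dose. Cells were fixed and nuclei stained in one step after 5 days, and nuclei were counted. Relative viability is the nuclei count for treated wells divided by that for vehicle wells, reported as medians of duplicate plates.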

[1] = compound: O=c1[nH]cc(F)c(=O)[nH]1 [5-Fluorouracil] + C[C@]1(O)C[C@@H](c2nc(-c3ccc4ccc(-c5ccccc5)nc4c3)c3c(N)nccn32)C1 [Linsitinib] (partner 1 µM)
Summary of the method: as §1

Sulindac + Navitoclax = compound: CC1=C(CC(=O)O)c2cc(F)ccc2/C1=C\c1ccc([S+](C)[O-])cc1 [Sulindac] + CC1(C)CCC(c2ccc(Cl)cc2)=C(CN2CCN(c3ccc(C(=O)NS(=O)(=O)c4ccc(N[C@H](CCN5CCOCC5)CSc5ccccc5)c(S(=O)(=O)C(F)(F)F)c4)cc3)CC2)C1 [Navitoclax] (partner 0.5 µM)
Summary of the method: as §1

[2] = compound: O=c1[nH]cc(F)c(=O)[nH]1 [5-Fluorouracil] + CC(=O)Nc1cccc(-n2c(=O)n(C3CC3)c(=O)c3c(Nc4ccc(I)cc4F)n(C)c(=O)c(C)c32)c1 [Trametinib] (partner 0.02 µM)
Summary of the method: as §1

## NCI-H3122
Staurosporine + OSI-027; first compound 0.005 µM
  relative viability: 1.25
Staurosporine + OSI-027; first compound 0.05 µM
  relative viability: 0.857
Staurosporine + OSI-027; first compound 0.1581 µM
  relative viability: 0.155
Staurosporine + OSI-027; first compound 0.5 µM
  relative viability: 0.0733
[1]; first compound 0.02 µM
  relative viability: 1.09
[1]; first compound 0.2 µM
  relative viability: 0.799
[1]; first compound 0.6325 µM
  relative viability: 0.415
[1]; first compound 2 µM
  relative viability: 0.223
Sulindac + Navitoclax; first compound 0.08 µM
  relative viability: 0.913
Sulindac + Navitoclax; first compound 0.253 µM
  relative viability: 0.999
Sulindac + Navitoclax; first compound 0.8 µM
  relative viability: 1.01
Sulindac + Navitoclax; first compound 2.53 µM
  relative viability: 0.992
Sulindac + Navitoclax; first compound 8 µM
  relative viability: 1.05
[2]; first compound 0.02 µM
  relative viability: 0.232
[2]; first compound 0.2 µM
  relative viability: 0.296
[2]; first compound 0.6325 µM
  relative viability: 0.187
[2]; first compound 2 µM
  relative viability: 0.176

## NCI-H2126
Staurosporine + OSI-027; first compound 0.005 µM
  relative viability: 0.712
Staurosporine + OSI-027; first compound 0.01581 µM
  relative viability: 0.406
Staurosporine + OSI-027; first compound 0.05 µM
  relative viability: 0.486
Staurosporine + OSI-027; first compound 0.1581 µM
  relative viability: 0.338
Staurosporine + OSI-027; first compound 0.5 µM
  relative viability: 0.333
[1]; first compound 0.02 µM
  relative viability: 0.64
[1]; first compound 0.2 µM
  relative viability: 0.378
[1]; first compound 0.6325 µM
  relative viability: 0.341
[1]; first compound 2 µM
  relative viability: 0.285
Sulindac + Navitoclax; first compound 0.08 µM
  relative viability: 0.823
Sulindac + Navitoclax; first compound 0.253 µM
  relative viability: 0.894
Sulindac + Navitoclax; first compound 0.8 µM
  relative viability: 0.817
Sulindac + Navitoclax; first compound 2.53 µM
  relative viability: 0.856
Sulindac + Navitoclax; first compound 8 µM
  relative viability: 0.853
[2]; first compound 0.02 µM
  relative viability: 0.579
[2]; first compound 0.2 µM
  relative viability: 0.305
[2]; first compound 0.6325 µM
  relative viability: 0.27
[2]; first compound 2 µM
  relative viability: 0.257

## NCI-H596
Staurosporine + OSI-027; first compound 0.005 µM
  relative viability: 0.798
Staurosporine + OSI-027; first compound 0.01581 µM
  relative viability: 0.285
Staurosporine + OSI-027; first compound 0.05 µM
  relative viability: 0.439
Staurosporine + OSI-027; first compound 0.1581 µM
  relative viability: 0.179
Staurosporine + OSI-027; first compound 0.5 µM
  relative viability: 0.135
[1]; first compound 0.02 µM
  relative viability: 1.02
[1]; first compound 0.2 µM
  relative viability: 0.834
[1]; first compound 0.6325 µM
  relative viability: 0.689
[1]; first compound 2 µM
  relative viability: 0.567
Sulindac + Navitoclax; first compound 0.08 µM
  relative viability: 0.901
Sulindac + Navitoclax; first compound 0.253 µM
  relative viability: 0.953
Sulindac + Navitoclax; first compound 0.8 µM
  relative viability: 0.812
Sulindac + Navitoclax; first compound 2.53 µM
  relative viability: 1.02
Sulindac + Navitoclax; first compound 8 µM
  relative viability: 1.13
[2]; first compound 0.02 µM
  relative viability: 0.845
[2]; first compound 0.2 µM
  relative viability: 0.649
[2]; first compound 0.6325 µM
  relative viability: 0.632
[2]; first compound 2 µM
  relative viability: 0.479

## LOU-NH91
Staurosporine + OSI-027; first compound 0.005 µM
  relative viability: 0.767
Staurosporine + OSI-027; first compound 0.01581 µM
  relative viability: 0.571
Staurosporine + OSI-027; first compound 0.05 µM
  relative viability: 0.487
Staurosporine + OSI-027; first compound 0.1581 µM
  relative viability: 0.344
Staurosporine + OSI-027; first compound 0.5 µM
  relative viability: 0.213
[1]; first compound 0.02 µM
  relative viability: 0.921
[1]; first compound 0.2 µM
  relative viability: 0.889
[1]; first compound 0.6325 µM
  relative viability: 0.646
[1]; first compound 2 µM
  relative viability: 0.415
Sulindac + Navitoclax; first compound 0.08 µM
  relative viability: 0.726
Sulindac + Navitoclax; first compound 0.253 µM
  relative viability: 0.772
Sulindac + Navitoclax; first compound 0.8 µM
  relative viability: 0.552
Sulindac + Navitoclax; first compound 2.53 µM
  relative viability: 0.638
Sulindac + Navitoclax; first compound 8 µM
  relative viability: 0.748
[2]; first compound 0.02 µM
  relative viability: 0.814
[2]; first compound 0.2 µM
  relative viability: 0.871
[2]; first compound 0.6325 µM
  relative viability: 0.818
[2]; first compound 2 µM
  relative viability: 0.596

## NCI-H1651
Staurosporine + OSI-027; first compound 0.005 µM
  relative viability: 0.523
Staurosporine + OSI-027; first compound 0.01581 µM
  relative viability: 0.396
Staurosporine + OSI-027; first compound 0.05 µM
  relative viability: 0.304
Staurosporine + OSI-027; first compound 0.1581 µM
  relative viability: 0.114
Staurosporine + OSI-027; first compound 0.5 µM
  relative viability: 0.129
[1]; first compound 0.02 µM
  relative viability: 0.973
[1]; first compound 0.2 µM
  relative viability: 0.859
[1]; first compound 0.6325 µM
  relative viability: 0.602
[1]; first compound 2 µM
  relative viability: 0.468
Sulindac + Navitoclax; first compound 0.08 µM
  relative viability: 1.29
Sulindac + Navitoclax; first compound 0.253 µM
  relative viability: 1.3
Sulindac + Navitoclax; first compound 0.8 µM
  relative viability: 0.544
Sulindac + Navitoclax; first compound 2.53 µM
  relative viability: 1.22
Sulindac + Navitoclax; first compound 8 µM
  relative viability: 1.38
[2]; first compound 0.02 µM
  relative viability: 0.879
[2]; first compound 0.2 µM
  relative viability: 0.684
[2]; first compound 0.6325 µM
  relative viability: 0.325
[2]; first compound 2 µM
  relative viability: 0.267

## NCI-H520
Staurosporine + OSI-027; first compound 0.005 µM
  relative viability: 0.294
Staurosporine + OSI-027; first compound 0.01581 µM
  relative viability: 0.319
Staurosporine + OSI-027; first compound 0.05 µM
  relative viability: 0.274
Staurosporine + OSI-027; first compound 0.1581 µM
  relative viability: 0.268
Staurosporine + OSI-027; first compound 0.5 µM
  relative viability: 0.141
[1]; first compound 0.02 µM
  relative viability: 0.892
[1]; first compound 0.2 µM
  relative viability: 1.07
[1]; first compound 0.6325 µM
  relative viability: 0.751
[1]; first compound 2 µM
  relative viability: 0.356
Sulindac + Navitoclax; first compound 0.08 µM
  relative viability: 1.33
Sulindac + Navitoclax; first compound 0.253 µM
  relative viability: 1.17
Sulindac + Navitoclax; first compound 0.8 µM
  relative viability: 1.03
Sulindac + Navitoclax; first compound 2.53 µM
  relative viability: 1.04
Sulindac + Navitoclax; first compound 8 µM
  relative viability: 1.44
[2]; first compound 0.02 µM
  relative viability: 0.624
[2]; first compound 0.2 µM
  relative viability: 0.666
[2]; first compound 0.6325 µM
  relative viability: 0.439
[2]; first compound 2 µM
  relative viability: 0.311
